Here are results for nine compounds from patent publication US20050159425A1, “Methods of therapy” (priority 2002, published 2005).

Data set [1] deals with IL-10 release from U937 cells. The data set can be described thus: IL-10 release from U937 cells (ELISA). It counts as cell-based, human. On the procedure:
U 937 cells were grown in RPMI (PAA Laboratories) medium with 10% fetal calf serum added (PAA Laboratories). 2×10^6 cells per flask were treated with prostaglandin E2 at 10^−6 Molar or with Rolipram (4×10^−6) for 24 hours. Medium was removed at 20 hours and analysed by ELISA. A capture antibody (Pharmingen) was coated onto 96 well plates and culture medium was added each well. A standard curve was created with recombinant IL-10 protein. After incubation and washing, a biotin labelled monoclonal antibody (Pharmingen) was added and following incubation and washing, peroxidase labelled streptavidin was added. After washing a tetramethyl benzidine substrate was added and colour developed in proportion to IL-10 in the original sample/standard. Colour was read using a plate photometer (Labsystems, Multiskan). Mean concentrations (N=3) in controls with no lipopolysaccharide (LPS) were […] and in the presence of LPS (100 nM) they were 43.9 […].
The effect of PGE1, PGE2, 19 hydroxy PGE1 and 19 hydroxy PGE2 on the stimulation of IL-10 in the presence and absence of rolipram was investigated as described above in Example 2. IL-10 levels were measured using an ELISA assay (R&D Ltd, Oxford). Measurement was performed according to the manufacturer's instructions.

For data set [2], the system named is phosphodiesterase IV b mRNA. Nature of the data set: phosphodiesterase IV-b mRNA in U937 cells (Taqman). Conditions: four hours of incubation; for PDE activity (phosphodiesterase IV b mRNA) after application: PGE 1×10^−6, 19-hydroxy PGE2 5×10^−6, without rolipram. In kind it is cell-based, human. The method, then: Template was amplified in a Taqman 7700 machine for 40 cycles using FAM/TAMRA dyes on the probe. The Applied Biosystems kit was used to amplify and detect ribosomal (18S)RNA (using VIC/TAMRA dyes) as an internal control in the same reaction tube. After 40 cycles the Ct (related to cycle number at which signal appears) for the FAM and the 18S (VIC) were recorded and […] relative quantitation was achieved using the formula 2^−ΔΔCt where Δ refers to the difference between the FAM and VIC signal related to an standard comparator included in each run.
The mRNA for phosphodiesterase IV-b was measured as described in Example 2 above. mRNA was extracted after four hours of incubation. The concentration of the PGE was 1×10^−6 and that of the 19-hydroxy PGE2 was 5×10^−6. The following primers and Taqman probe were used for quantitation of PDE IV b mRNA.
For orientation: In qPCR the cycle at which signal appears reflects the starting amount.

The conditions of data set [3]: in vivo; cited from earlier work.
The subject of the next data set is type IV PDE. Conditions: cited from earlier work; for IC50: type IV PDE selective inhibitor.
The test system of the next data set is PDE. The settings on record: cited from earlier work.
Data set [4] deals with monocyte/macrophages stimulated with lipopolysaccharide (LPS). Conditions: cited from earlier work.

In the case of 19-hydroxy PGE2, the “concentration necessary to achieve similar effects to PGE” value in data set [1] (compared with PGE) is “higher concentration”. In addition, the “stimulation of IL-10 in the presence of a PDE inhibitor” value in data set [1] was “increased strikingly”. Further, the “PDE activity (phosphodiesterase IV b mRNA) after application” value in data set [2] is reported as “increase”.
As to `CCCCC(C)(O)CC=C[C@H]1[C@H](O)CC(=O)[C@@H]1CCCCCCC(=O)OC` (mixture of isomers) [Cytotec, (±) methyl 11α, 16-dihydroxy-16-methyl-9-oxoprost-13-enoate], the hypotension entry in data set [3] was “does not cause hypotension”.
On to `COc1ccc(C2CNC(=O)NC2)cc1O[C@H]1C[C@@H]2CC[C@H]1C2` [CP 80 633], for which, in the data set with type IV PDE, the “type IV PDE inhibition” value was “potent type IV inhibitors”.
`CC(C)Cn1c(=O)n(C)c(=O)c2[nH]cnc21` [IBMX, 3-isobutyl-1-methylxanthine]: the half-inhibitory concentration (IC50) with PDE (non-specific PDE inhibitor) is 2000 to 50000 nM.
Turning to `CCCCC[C@H](O)/C=C/[C@H]1[C@H](O)CC(=O)[C@@H]1C/C=C\CCCC(=O)O` [PGE2, prostaglandin E2], in data set [1] (combination with rolipram), the “effect on release of IL-10 in combination with PDE inhibitor rolipram” value is listed as “synergistic”. In addition, in data set [1], the “stimulation of IL-10 in the presence of a PDE inhibitor” value was “increased strikingly”. Also, in data set [2], the “PDE activity (phosphodiesterase IV b mRNA) after application” value was “increase”. For the same compound, the “PDE message levels with a type IV selective PDE inhibitor” value in data set [2] (with type IV selective PDE inhibitor (rolipram)) is listed as “increases PDE message levels even further”.
Regarding `CCCCOc1cc(CC2CNC(=O)N2)ccc1OC` (stereo not shown) [Ro-20-1724, 4-[3-butoxy-4-methoxybenzyl]-2-imidazolidinone], the IC50 in the data set with type IV PDE is 2000 nM.
For `Cn1c(=O)c2c(ncn2C)n(C)c1=O` [caffeine], in the data set with PDE (compared with theophylline, IBMX and pentoxifylline), the “activity as non-specific PDE inhibitor” value is given as “not as active as the others”.
As to `COc1ccc(C2CNC(=O)C2)cc1OC1CCCC1` (stereo not shown) [rolipram, 4-[3-cyclopentyloxy-4-methoxyphenyl]-2-pyrrolidinone], in data set [4], the IL-10 levels entry is “raise” and the cAMP levels result is “raise”. In addition, in the data set with type IV PDE, the IC50 is 800 nM.
On to `Cn1c(=O)c2[nH]cnc2n(C)c1=O` [theophylline], for which the “times less effective than rolipram” value in the data set with type IV PDE (non-selective inhibitor compared with rolipram) is on record as 30 times.

As a reminder, the IC50 is the concentration that inhibits the measured activity by half.
